The subject of the assay is Aspergillus parasiticus NRRL 2999. The format is cell-based.
Turning to “(S)-3-aminooctanoyl-(S)-3-aminooctanoyl-L-alanine [Example 6]”, the “aflatoxin production inhibition activity (in words)” value is “extremely excellent aflatoxin production inhibition activity”. For the substance “(S)-3-aminooctanoyl-(S)-3-aminooctanoyl-L-proline [Example 8]”, the “aflatoxin production inhibition activity (in words)” value was “extremely excellent aflatoxin production inhibition activity”. Consider “(S)-3-aminooctanoyl-(S)-3-aminooctanoyl-glycine [Example 4]”, for which the “aflatoxin production inhibition activity (in words)” value is given as “extremely excellent aflatoxin production inhibition activity”.

The values above are taken from patent publication US20080312080A1 (priority 2006, published 2008).
